The record followed here is article PMC6547740, “Potent and specific MTH1 inhibitors targeting gastric cancer” (Cell Death & Disease, 2019).

Molecules are shown by their SMILES.

The subject of assay [1] is HGC-27 cells. Put plainly: Alkaline comet assay, HGC-27. It counts as cell-based, human. The conditions noted are these: HGC-27, 10 µM, 48 h, compared with DMSO. Here is the method:
MGC-803 and HGC-27 cells were seeded into 6-well plates(1.5 × 10^5 cells/well) and cultured overnight. For siRNA experiments, the control siRNA and MTH1 siRNA were transfected into cells. For compounds experiments, cells were treated with candidate compounds MI-743 for 48 h before collection. For the H2O2 control, cells were treated with 100 µM H2O2 for 10 min. Subsequently, cells were harvested, washed and resuspended with PBS. After counting, cells were mixed with 1.2% low melting-temperature agarose at 37 °C. The mixtures were layered onto pre-warmed glass slides, which were pre-coated with 1% agarose. After adding coverslips, slides were kept in 4 °C immediately for 10-15 min, followed by immersing in pre-chilled lysis buffer(2.5 M NaCl, 0.1 M EDTA, 10 mM Tris-HCL pH 7.7, 1% Triton X-100, 1% DMSO)for 5-8 h. Then, slides were washed three times with enzyme reaction buffer (40 mM HEPES pH 8.0, 0.1 M KCl, 0.5 mM EDTA and 0.2 mg/mL BSA) and incubated for another 45 min in pre-chilled alkaline electrophoresis buffer (50 mM NaOH, 1 mM EDTA, 1% DMSO, pH12.8). After electrophoresis for 30 min at 25 V, slides were neutralized with 0.4 M Tris-HCl pH 7.0 for 1 h and stained with 1‰ EB for 5 min. At last, images were acquired using fluorescence microscope and analysised by CometScore software.

The test system of assay [2] is MGC-803 cells. Nature of the assay: Colony formation assay, MGC-803. It counts as cell-based, human. The settings on record: MGC-803, 7 days treatment, compared with DMSO or MI-929. Here is the method:
The day before treatment, cells were seeded into six-well plates at a concentration of 1 × 10^3 cells per well, and then the media were replaced with fresh media containing serial concentrations of candidate compounds. After 7 days of treatment, the cells were fixed with 75% ethanol, stained with 0.1% crystal violet solution and captured by the microscopy (Leica). After that, the crystal violet crystals were dissolved by adding methanol. The absorbance at 595 nm was measured by a BioTek micro plate reader. In the end, the data were analyzed using the GraphPad Prism 5 software.

Assay [3] concerns KYSE-450 cells. Put plainly: MTT cell viability, KYSE-450. It counts as cell-based. The settings on record: Homo sapiens, esophageal cancer cell line, 72 h. Here is the method:
(§1) The cell viability was determined by 3-(4,5-dimethylthiazol-2-yl)-2,5-diphenyltetrazolium bromide (MTT) assay, according to the manufacturer’s instructions. 1 day before treatment, cells were seeded into 96-well plates at a concentration of 2–5 × 10^3 cells per well, followed by treatment with fresh medium containing serial dilutions of candidate compounds for 48 or 72 h, 20 μL of MTT solution (5 mg/mL in PBS) was then added to each well. After treatment, the plates were incubated at 37 °C for another 4 h. Subsequently, the MTT solution was removed and 150 μL of DMSO was added to each well for 10 min, and then the plates were shaken to dissolve the dark blue crystal (formazan), the absorbance was detected at 570 nm using a BioTek microplate reader. The data were analyzed using SPSS 20 software.

For assay [4], the system named is HepG2 cells. Put plainly: MTT cell viability, HepG2. The settings on record: Homo sapiens, liver cancer cell line, 72 h. Type of assay: cell-based. The method, then: as §1
The test system of assay [5] is EC109 cells. Put plainly: MTT cell viability, EC109. Type of assay: cell-based. The settings on record: Homo sapiens, ECa-109, esophageal cancer cell line, 72 h. Here is the method: as §1
The test system of assay [6] is MGC-803 cells. Put plainly: Western blot of DNA damage response markers, MGC-803. The conditions noted are these: MGC-803, 1-12 µM 48 h or 12 µM 12-48 h, dose and time-dependently, vs DMSO. It counts as cell-based, human. The method, then:
MGC-803, HGC-27 and GES-1 cells were seeded into 100mm^2 plastic dishes(1 × 10^5 cells/well) and incubated overnight prior to the addition of compound MI-743 at 1, 2, 4, 8 and 12 µM for 48 h or compound MI-743 at 12 µM for 12, 24, 36 and 48 h, respectively. After treatment, the cells were harvested and lysed with RIPA cell lysis buffer, containing protease inhibitor cocktail. Then, the cells were centrifuged at 12,000 × g for 20 min at 4 °C. The supernatant were collected and the concentration was determined by a Bicinchoninic Acid (BCA) Protein Assay kit, denatured at 100 °C for 10 min, separated by SDS−PAGE and transferred to 0.22 μm nitrocellulose membranes. After blocking by PBS containing 5% skim milk for 2 h at room temperature, the membranes were probed with the appropriate primary antibodies (1:500~1:1000) at 4 °C overnight, followed by the treatment of horseradish-peroxidase-conjugated secondary antibody (1:10000) at room temperature for 2 h. Subsequently, the membranes were washed with PBST, examined by enhanced chemiluminescence and the data was determined using Image J software.
(Immunoblotting shows a protein as a band on a membrane.)

The test system of assay [7] is MKN45 cells. Put plainly: MTT cell viability, MKN45. The conditions noted are these: Homo sapiens, MKN-45, gastric cancer cell line, 72 h. Type of assay: cell-based. The method, then:
as §1

In assay [8] the test system is B16-F10 cells. Put plainly: MTT cell viability, B16-F10. It counts as cell-based. The conditions noted are these: Mus musculus, 72 h. Here is the method: as §1
The subject of assay [9] is ZIP177 cells. Put plainly: MTT cell viability, ZIP177. It counts as cell-based. The conditions noted are these: Homo sapiens, liver cancer cell line, 72 h. Here is the method: as §1
The subject of assay [10] is Het-1A cells. Nature of the assay: MTT cell viability, Het-1A. Type of assay: cell-based. The settings on record: Homo sapiens, normal esophageal epithelial cell line, 72 h. Here is the method:
as §1

Assay [11] has as its target T1, OGG1 (Homo sapiens, UniProt O15527).
T1 construct: endogenous in cells; host or cells: MGC-803 (human gastric cancer cell line)
Nature of the assay: Cellular thermal shift assay (CETSA), OGG1. Type of assay: binding. The conditions noted are these: MGC-803 cells, 50 µM compound, heated 10 min from 43 to 61 °C. The method, then:
Cellular thermal shift assay (CETSA), also known as the target engagement assay was one-way to detect the intracellular interaction ability of compounds with its specific target. Firstly, cells were seeded into T75 culture flasks and cultured overnight. Then, the cells were treated with cell media containing 1‰ DMSO as blank control and candidate compounds for 3–5 h. Next, the cells were collected by centrifugation and resuspended by PBS, then the cells were aliquoted into 7 PCR tubes and heated using PCR instrument for 10 min from 43 to 61 °C. After that, cells were lysed using liquid nitrogen and three repeated cycles of freeze-thawing. Then, samples were centrifuged at 12,000 × g for 20 min at 4 °C. Supernatants were denatured at 100 °C for 10 min and kept at −20 °C until Western Blot analysis.

T1 sequence (O15527 whole entry): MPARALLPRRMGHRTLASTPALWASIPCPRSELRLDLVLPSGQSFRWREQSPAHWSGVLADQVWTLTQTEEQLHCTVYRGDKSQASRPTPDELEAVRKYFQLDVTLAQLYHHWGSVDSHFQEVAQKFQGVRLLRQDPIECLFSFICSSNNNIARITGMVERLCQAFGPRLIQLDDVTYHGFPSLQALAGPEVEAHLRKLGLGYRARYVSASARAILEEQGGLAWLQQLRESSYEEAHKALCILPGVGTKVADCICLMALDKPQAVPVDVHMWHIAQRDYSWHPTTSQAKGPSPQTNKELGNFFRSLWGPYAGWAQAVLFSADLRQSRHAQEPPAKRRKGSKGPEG

With `C#CCSc1nc(NNC(N)=S)c(C#N)c(-c2ccc3oc(=O)ccc3c2)n1` [MI-743, 2-(5-cyano-6-(2-oxo-2H-chromen-6-yl)-2-(prop-2-yn-1-ylthio)pyrimidin-4-yl)hydrazine-1-carbothioamide], in assay [1], the comet tail moment result is recorded as “significantly elevated”. The colony formation entry in assay [2] is “smaller and fewer colonies”. The IC50 (usually the concentration needed to halve the response being measured) in assay [3] came out at 6.69 ± 0.82 µM; in assay [4] it was 6.73 ± 0.83 µM; in assay [5], 6.99 ± 0.84 µM; in assay [7], 16 ± 1.18 µM; in assay [8], 8.08 ± 0.91 µM; in [9], 9.36 ± 0.92 µM. Further, the IC50 in [10] is 19.2 ± 1.89 µM. In addition, the “expression levels of p53pS15, ATMpS1981 and p21” value in assay [6] is “significantly increased”. Moreover, the “temperature at which OGG1 became unstable” value in assay [11] turned out to be 49 °C.
